Our source for the IC50 values is BindingDB's records for doi:10.1021/jm00126a016 (G. D. Searle, 1989).

Structures are written as SMILES. Where only a bound is given, the exact number is not on record here.

Usually IC50 stands for the concentration that inhibits the measured activity by half. Low values mean greater potency in that assay, high ones weaker potency in that assay.

The target in the assay is Glutamate receptor ionotropic NMDA, PCP site (Rattus norvegicus). Put plainly: Inhibition of [3H]1-[1-(2-thienyl) piperidine ([3H]TCP) binding to phencyclidine receptor.
`c1ccc2c(c1)CCNC2c1ccc2ccccc2c1` (stereo not drawn) had an IC50 greater than 30 µM. The result for `CC(C)C1NCCc2ccccc21` (stereo not drawn) reads 11 µM; that for `CC1Cc2ccccc2C(C)N1` (stereo not drawn), greater than 30 µM; that for `Clc1ccc(C2NCCc3ccccc32)cc1` (stereo not drawn), 5.3 µM. For `CN1CCc2ccccc2C1`, the IC50 is greater than 30 µM.

The molecule `c1ccc(C2NCc3ccccc32)cc1` (stereo not drawn) showed an IC50 greater than 30 µM. In turn, `Fc1ccc(C2NCCc3ccccc32)cc1` (stereo not drawn) yielded an IC50 of 4.9 µM. Molecule `C=CCN1C(C)Cc2ccccc2C1C` (stereo not drawn) registered an IC50 of 5.4 µM.
